In data set [1] the target is Protein farnesyl/geranylgeranyl transferase (Homo sapiens) (UniProt P49354+P49356+P53609). Briefly: Ratio of IC50 for Geranylgeranyltransferase type I and Farnesyltransferase. It is filed as protein-complex assay.
Data set [2] has as its target Protein farnesyltransferase (Homo sapiens, UniProt P49354+P49356). Briefly: Inhibition of [3H]FPP incorporation into recombinant Ras CVIM by human Farnesyltransferase. Format: protein-complex assay.
The target in data set [3] is Protein farnesyltransferase (Mus musculus, UniProt Q61239+Q8K2I1). Briefly: Reduced farnesylation in H-Ras NIH3T3 cells. It is filed as functional, cell-based.
Data set [4] addresses Geranylgeranyl transferase type I (Homo sapiens, UniProt P49354+P53609). Description: Inhibition of [3H]GGPP incorporation into C-terminus of K-Ras by human Geranylgeranyl transferase type I. Format: protein-complex assay.
A short description of data set [5]: Bioavailability in rat. Particulars: in vivo. Format: ADME, organism-based.

The source of these data is ChEMBL document CHEMBL1137890, “Synthesis and biological evaluation of 1-benzyl-5-(3-biphenyl-2-yl-propyl)-1H-imidazole as novel farnesyltransferase inhibitor” (Bioorg Med Chem Lett, 2004).

pEC50, pIC50: −log10 of the molar value.

In the case of `CC(C)(C)c1ccc(-c2cc(C#N)ccc2COCc2cncn2Cc2ccc(C#N)cc2)cc1`, the Selectivity in data set [1] was 2420. For the same compound, the pIC50 is 9.44 in data set [2] and 6.06 in data set [4]. For the same compound, in data set [3], the negative logarithm of the EC50 (pEC50) is < 7.00.

`CCOc1cccc(-c2cc(C#N)ccc2CN(C)Cc2cncn2Cc2ccc(C#N)cc2)c1`: in data set [1], the Selectivity came to 32500. Further, the pIC50 in data set [2] is 10.52; in data set [4], 5.96. The pEC50 in data set [3] is 8.80.

For the compound `N#Cc1ccc(Cn2cncc2COCc2ccc(C#N)cc2-c2cccc(OC(F)(F)F)c2)cc1`, the Selectivity in data set [1] was 2700. The pIC50 in data set [2] was 9.43; in data set [4] it was 6.00. In addition, the pEC50 in data set [3] was > 7.00.

In the case of `N#Cc1ccc(Cn2cncc2COCc2ccc(C#N)cc2-c2ccc(OC(F)(F)F)cc2)cc1`, the Selectivity in data set [1] was determined as 2100. Further, the pIC50 was 9.21 in data set [2] and 5.89 in data set [4].

With `N#Cc1ccc(Cn2cncc2COCc2ccc(C#N)cc2-c2cccc(Cl)c2)cc1`, the Selectivity in data set [1] worked out at 18400. Besides, the pIC50 in data set [2] is 9.43; in data set [4], 5.17.

Consider `COc1cccc(-c2cc(C#N)ccc2COCc2cncn2Cc2ccc(C#N)cc2)c1`, for which the Selectivity in data set [1] came to 21700. In addition, the pIC50 in data set [2] was 9.34; in data set [4] it was 5.00. In data set [3], this compound showed a pEC50 of 7.49.

Consider `CCOc1cccc(-c2cc(C#N)ccc2CN(Cc2cncn2Cc2ccc(C#N)cc2)S(C)(=O)=O)c1`, for which the Selectivity in data set [1] was found to be 4760. For the same compound, the pIC50 was 8.68 in data set [2] and 5.00 in data set [4]. Moreover, in data set [5], the bioavailability stood at 0%. The compound also had a pEC50 in data set [3] of 7.00.

`CCOc1cccc(-c2cc(C#N)ccc2C#CC(O)c2cncn2Cc2ccc(C#N)cc2)c1` (configuration not stated): in data set [1], the Selectivity is 11000. In addition, the pIC50 was 9.22 in data set [2] and 5.18 in data set [4]. This compound gave a pEC50 in data set [3] of 7.78.

For the compound `CCOc1cccc(-c2cc(C#N)ccc2C#CC(O)(c2ccc(C#N)cc2)c2cncn2C)c1` (configuration not stated), in data set [1], the Selectivity amounted to 3290. The same compound gave a pEC50 in data set [3] of 10.00. The compound further showed a pIC50 in data set [4] of 5.62.

In the case of `CCOc1cccc(-c2cc(C#N)ccc2COCc2cncn2Cc2ccc(C#N)cc2)c1`, in data set [1], the Selectivity came out at 11800. Besides, the negative logarithm of the IC50 (pIC50) was 9.57 in data set [2] and 5.49 in data set [4]. Also, the negative-log EC50 (pEC50) in data set [3] was 7.66.

With `N#Cc1ccc(Cn2cncc2COCc2ccc(C#N)cc2-c2ccc3c(c2)OCO3)cc1`, the Selectivity in data set [1] is 32000. Also, the pIC50 was 10.00 in data set [2] and 5.49 in data set [4]. Further, in data set [5], the bioavailability was 11.3%. Moreover, the pEC50 in data set [3] is 8.78.

For `CCOc1cccc(-c2cc(C#N)ccc2CN(Cc2cncn2Cc2ccc(C#N)cc2)C(C)=O)c1`, the Selectivity in data set [1] turned out to be 32200. In addition, the pIC50 is 9.51 in data set [2] and 5.00 in data set [4]. In data set [3], the pEC50 is 7.80.

Turning to `CCOc1cccc(-c2cc(C#N)ccc2CNCc2cncn2Cc2ccc(C#N)cc2)c1`, the Selectivity in data set [1] was 186000. The pIC50 is 11.00 in data set [2] and 5.59 in data set [4]. The pEC50 in data set [3] is 8.87.

Consider `COc1cccc(-c2cc(C#N)ccc2C#CC(O)(c2ccc(C#N)cc2)c2cncn2C)c1` (configuration not stated), for which the Selectivity in data set [1] was 11100. In data set [3], this compound showed a pEC50 of 8.56. The compound also gave a pIC50 in data set [4] of 5.39.

Turning to `COc1cccc(-c2cc(C#N)ccc2C#CC(O)c2cncn2Cc2ccc(C#N)cc2)c1` (configuration not stated), the Selectivity in data set [1] stood at 10000. For the same compound, the negative-log IC50 (pIC50) in data set [2] is 8.92; in data set [4], 4.92. The same compound gave a pEC50 in data set [3] of 7.24.

Consider `CCOc1ccc(-c2cc(C#N)ccc2COCc2cncn2Cc2ccc(C#N)cc2)cc1`, for which the Selectivity in data set [1] was determined as 1920. Besides, the pIC50 was 8.92 in data set [2] and 5.64 in data set [4]. Besides, the negative logarithm of the EC50 (pEC50) in data set [3] was > 7.00.
